pEC50: −log10 of the molar value.
Target: T1, GPR119 (Homo sapiens, UniProt Q8TDV5)
T1 construct: host or cells: CHO-K1 (CRE-bla reporter, doxycycline-induced)
T1 sequence (Q8TDV5 1-335): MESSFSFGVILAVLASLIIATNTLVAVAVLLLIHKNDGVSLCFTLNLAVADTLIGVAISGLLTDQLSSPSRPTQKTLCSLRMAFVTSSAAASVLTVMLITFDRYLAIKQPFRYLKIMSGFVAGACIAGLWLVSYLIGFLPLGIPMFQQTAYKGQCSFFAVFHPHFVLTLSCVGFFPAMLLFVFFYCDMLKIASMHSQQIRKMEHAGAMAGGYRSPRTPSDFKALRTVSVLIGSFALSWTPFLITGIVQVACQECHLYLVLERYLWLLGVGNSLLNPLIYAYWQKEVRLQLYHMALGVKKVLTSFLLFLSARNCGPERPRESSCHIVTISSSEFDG
Experiment: Controlling Effect of GPR119 in CRE-bla CHO-K1 Cells (EC50)
Type: cell-based
Settings: GPR119 CRE-bla CHO-K1 cell line, 5 hr incubation with compound, β-lactamase LiveBLAzer-FRET B/G readout; read-out: controlling effect against GPR119 in CRE-bla CHO-K1 cell line (EC50)
Method: Controlling Effect of GPR119 in CRE-bla CHO-K1 Cells (EC50)
The day before the experiment, GPR119 CRE-bla CHO-K1 cell line purchased from Invitrogen was seeded in a 96 black well plate in an amount of 80 μl at a density of 5×10^4 cells. After the seeding, 10 μl of doxycycline in a concentration of 1 μg/ml was added to each well and incubated in an incubator at 37° C. under 5% CO2 for about 16 to 20 hr.
The day of experiment, sample compounds were performed a 10-fold serial dilution with a culture medium at various concentrations of 1 uM to […]. Considering that the culture medium used in the seeding and doxycycline are together applied, the sample compounds were diluted to a 5-fold dilution of the planned concentration. 20 μl of the compound diluted with the culture medium was added to each well and incubated in the incubator for 5 hr. The compound-untreated group was added with 20 μl of 0.5% dimethyl sulfoxide (DMSO) diluted with the culture medium. After 5 hr from the incubation, substrate mixture of a 6-fold concentration were prepared; 6 μl of 1 mM LiveBLAzer™-FRET B/G(CCF4-AM) substrate, 60 μl of solution B, 904 μl of solution C and 30 μl of solution D. 12 μl of the substrate mixture was added to each well and allowed to be kept at room temperature for 2 hr with shading the light. Fluorescence intensity value of blue channel and green channel was determined by a fluorescence microplate reader at 409 nm/460 nm and 409 nm/[…] (excitation/emission), respectively. In order to confirm the controlling effect of the inventive compounds against GPR119, EC50 (half maximal effective concentration) was determined based on the determined values. EC50, the concentration at which 50% activity of β-lactamase, was determined according to the following Equation: Equation=[(Ti−Tz)/(C−Tz)]×100
[Wherein, Ti: Cell density of the compound-treated group; Tz: Cell density of the negative control group; and C: Cell density of the positive control group]

| Molecule | pEC50 |
| --- | --- |
| 7-(2-fluoro-4-4-[1-(5-trifluoromethylpyrimidin-2-yl)-piperidin-4-yloxy]-thieno[3,2-d]pyrimidine [Example 82] | > 7.00 |
| CS(=O)(=O)c1ccc(-c2csc3c(N4CCC(c5nc(C6CC6)no5)CC4)ncnc23)cc1 [Example 1, 3-cyclopropyl-5-(1-(7-(4-methanesulfonyl-phenyl)thieno[3,2-d]pyrimidin-4-yl)piperidin-4-yl)-1,2,4-oxadiazole] | > 7.00 |
| CS(=O)(=O)c1ccc(-c2csc3c(N4CCCC4)ncnc23)cc1 [Example 2, 7-(4-methanesulfonyl-phenyl)-4-(pyrrolidin-1-yl)thieno[3,2-d]pyrimidine] | < 6.00 |
| CS(=O)(=O)c1ccc(-c2csc3c(N4CCCCC4)ncnc23)cc1 [Example 3, 7-(4-methanesulfonyl-phenyl)-4-(piperidin-1-yl)thieno[3,2-d]pyrimidine] | < 6.00 |
| CCc1noc(C2CCN(c3ncnc4c(-c5ccc(S(C)(=O)=O)cc5)csc34)CC2)n1 [Example 4, 3-ethyl-5-(1-(7-(4-methanesulfonyl-phenyl)thieno[3,2-d]pyrimidin-4-yl)piperidin-4-yl)-1,2,4-oxadiazole] | 6.00 to 7.00 |
| CC(C)c1noc(C2CCN(c3ncnc4c(-c5ccc(S(C)(=O)=O)cc5)csc34)CC2)n1 [Example 5, 3-isopropyl-5-(1-(7-(4-methanesulfonyl-phenyl)thieno[3,2-d]pyrimidin-4-yl)piperidin-4-yl)-1,2,4-oxadiazole] | > 7.00 |
| CS(=O)(=O)c1ccc(-c2csc3c(N4CCC(c5nc(C6CCCC6)no5)CC4)ncnc23)cc1 [Example 6, 3-cyclopentyl-5-(1-(7-(4-methanesulfonyl-phenyl)thieno[3,2-d]pyrimidin-4-yl)piperidin-4-yl)-1,2,4-oxadiazole] | > 7.00 |
| CS(=O)(=O)c1ccc(-c2csc3c(N4CCC(c5nc(C6CCCCC6)no5)CC4)ncnc23)cc1 [Example 7, 3-cyclohexyl-5-(1-(7-(4-methanesulfonyl-phenyl)thieno[3,2-d]pyrimidin-4-yl)piperidin-4-yl)-1,2,4-oxadiazole] | > 7.00 |
| CS(=O)(=O)c1ccc(-c2csc3c(N4CCC(c5nc(-c6ccccc6)no5)CC4)ncnc23)cc1 [Example 8, 5-(1-(7-(4-(methanesulfonylphenyl)phenyl)thieno[3,2-d]pyrimidin-4-yl)piperidin-4-yl)-3-phenyl-1,2,4-oxadiazole] | 6.00 to 7.00 |
| CC(C)c1noc(N2CCN(c3ncnc4c(-c5ccc(S(C)(=O)=O)cc5)csc34)CC2)n1 [Example 9, 3-isopropyl-5-(4-(7-(4-methanesulfonyl-phenyl)thieno[3,2-d]pyrimidin-4-yl)piperazin-1-yl)-1,2,4-oxadiazole] | 6.00 to 7.00 |
| CC(C)(C)OC(=O)N1CCN(c2ncnc3c(-c4ccc(S(C)(=O)=O)cc4)csc23)CC1 [Example 10, tert-butyl 4-(7-(4-methanesulfonyl-phenyl)thieno[3,2-d]pyrimidin-4-yl)piperazine-1-carboxylate] | 6.00 to 7.00 |
| CCc1cnc(N2CCN(c3ncnc4c(-c5ccc(S(C)(=O)=O)cc5)csc34)CC2)nc1 [Example 11, 4-(4-(5-ethylpyrimidin-2-yl)piperazin-1-yl)-7-(4-methanesulfonyl-phenyl)thieno[3,2-d]pyrimidine] | 6.00 to 7.00 |
| CC(C)c1noc(C2CCN(c3ncnc4c(-c5ccc(S(C)(=O)=O)cc5F)csc34)CC2)n1 [Example 12] | > 7.00 |
| CC(C)c1noc(C2CCN(c3ncnc4c(-c5ccc(S(C)(=O)=O)c(F)c5)csc34)CC2)n1 [Example 13] | < 6.00 |
| CC(C)c1noc(C2CCN(c3ncnc4c(-c5ccc([N+](=O)[O-])cc5)csc34)CC2)n1 [Example 14, 4-[4-(3-isopropyl-[1,2,4]oxadiazol-5-yl)-piperidin-1-yl]-7-(4-nitro-phenyl)-thieno[3,2-d]pyrimidine] | < 6.00 |
| CC(C)c1noc(C2CCN(c3ncnc4c(-c5ccc(C(=O)O)cc5)csc34)CC2)n1 [Example 15, 4-{4-[4-(3-isopropyl-[1,2,4]oxadiazol-5-yl)-piperidin-1-yl]-thieno[3,2-d]pyrimidin-7-yl}-benzoic acid] | 6.00 to 7.00 |
| COC(=O)c1ccc(-c2csc3c(N4CCC(c5nc(C(C)C)no5)CC4)ncnc23)cc1 [Example 16, 4-{4-[4-(3-isopropyl-[1,2,4]oxadiazol-5-yl)-piperidin-1-yl]-thieno[3,2-d]pyrimidin-7-yl}-benzoic acid methyl ester] | 6.00 to 7.00 |
| CC(C)(C)c1noc(C2CCN(c3ncnc4c(-c5ccc(S(C)(=O)=O)cc5F)csc34)CC2)n1 [Example 17, 4-[4-(3-tert-butyl-[1,2,4]oxadiazol-5-yl)-piperidin-1-yl]-7-(2-fluoro-4-methanesulfonyl-phenyl)-thieno[3,2-d]pyrimidine] | > 7.00 |
| CS(=O)(=O)c1ccc(-c2csc3c(N4CCC(c5nc(C6CC6)no5)CC4)ncnc23)c(F)c1 [Example 18, 4-[4-(3-cyclopropyl-[1,2,4]oxadiazol-5-yl)-piperidin-1-yl]-7-(2-fluoro-4-methanesulfonyl-phenyl)-thieno[3,2-d]pyrimidine] | > 7.00 |
| CS(=O)(=O)c1ccc(-c2csc3c(N4CCC(c5nc(C6CCCC6)no5)CC4)ncnc23)c(F)c1 [Example 19, 4-[4-(3-cyclopentyl-[1,2,4]oxadiazol-5-yl)-piperidin-1-yl]-7-(2-fluoro-4-methanesulfonyl-phenyl)-thieno[3,2-d]pyrimidine] | > 7.00 |
| CCCS(=O)(=O)c1ccc(-c2csc3c(N4CCC(c5nc(C(C)C)no5)CC4)ncnc23)cc1 [Example 20, 4-[4-(3-isopropyl-[1,2,4]oxadiazol-5-yl)-piperidin-1-yl]-7-(4-(propylsulfonyl)phenyl)-thieno[3,2-d]pyrimidine] | > 7.00 |
| CC(C)c1noc(C2CCN(c3ncnc4c(-c5ccc(S(=O)(=O)C6CC6)cc5)csc34)CC2)n1 [Example 21, 7-(4-(cyclopropylsulfonyl)phenyl)-4-[4-(3-isopropyl-[1,2,4]oxadiazol-5-yl)-piperidin-1-yl]-thieno[3,2-d]pyrimidine] | > 7.00 |
| CC(C)c1noc(C2CCN(c3ncnc4c(-c5ccc(S(=O)(=O)C(C)C)cc5)csc34)CC2)n1 [Example 22, 4-[4-(3-isopropyl-[1,2,4]oxadiazol-5-yl)-piperidin-1-yl]-7-(4-(isopropylsulfonyl)phenyl)-thieno[3,2-d]pyrimidine] | > 7.00 |
| CC(C)c1noc(C2CCN(c3ncnc4c(-c5ccc(S(=O)(=O)C6CCCC6)cc5)csc34)CC2)n1 [Example 23, 7-(4-(cyclopentylsulfonyl)phenyl)-4-[4-(3-isopropyl-[1,2,4]oxadiazol-5-yl)-piperidin-1-yl]-thieno[3,2-d]pyrimidine] | > 7.00 |
| CCCS(=O)(=O)c1ccc(-c2csc3c(N4CCC(c5nc(C(C)C)no5)CC4)ncnc23)c(F)c1 [Example 24, 7-4-(2-fluoro-(4-propylsulfonyl)phenyl)-4-[4-(3-isopropyl-[1,2,4]oxadiazol-5-yl)-piperidin-1-yl]-thieno[3,2-d]pyrimidine] | > 7.00 |
| Cn1cc(-c2ccc(S(C)(=O)=O)cc2)c2ncnc(OC3CCN(C(=O)OC(C)(C)C)CC3)c21 [Example 25, tert-butyl 4-(5-methyl-7-(4-methanesulfonyl-phenyl)-5H-pyrrolo[3,2-d]pyrimidin-4-yloxy)piperidine-1-carboxylate] | > 7.00 |
| Cn1cc(-c2ccc(S(C)(=O)=O)cc2)c2ncnc(OC3CCNCC3)c21 [Example 26, 5-methyl-7-(4-methanesulfonyl-phenyl)-4-(piperidin-4-yloxy)-5H-pyrrolo[3,2-d]pyrimidine] | < 6.00 |
| CCc1cnc(N2CCC(Oc3ncnc4c(-c5ccc(S(C)(=O)=O)cc5)cn(C)c34)CC2)nc1 [Example 27, 4-(1-(5-ethylpyrimidin-2-yl)piperidin-4-yloxy)-5-methyl-7-(4-methanesulfonyl-phenyl)-5H-pyrrolo[3,2-d]pyrimidine] | > 7.00 |
| Cn1cc(-c2ccc(S(C)(=O)=O)cc2)c2ncnc(OC3CCN(c4ncc(C(F)(F)F)cn4)CC3)c21 [Example 28, 5-methyl-7-(4-methanesulfonyl-phenyl)-4-(1-(5-(trifluoromethyl)pyrimidin-2-yl)piperidin-4-yloxy)-5H-pyrrolo[3,2-d]pyrimidine] | > 7.00 |

Reference: patent US8853213B2, “Bicyclic compound for modulating G protein-coupled receptors” (Hanmi Pharm. Co., Ltd, priority 2011, dated 2014)
